Assays:
[1] = system: human red blood cells (RBC); assay: Hemolysis assay; conditions: low concentrations, 37° C., 20 hours
Experimental: Briefly, each sample was serially diluted with phosphate buffered saline (PBS), and 0.5 ml of each dilute suspension was mixed with 0.5 ml washed human red blood cells (RBC) [4% in PBS (v/v)]. Sample and standard were placed in a 37° C. incubator and agitated for 20 hours. Tubes were centrifuged at low speed (2000×G) for 10 minutes and 200 μl of the supernatant was quantitated by absorbance at 550 nm. 100 percent hemolysis was defined as the maximum amount of hemolysis obtained from the detergent Triton X-100.
The lipids were hydrated in phosphate buffered saline (PBS). 1-O-octadecyl-2-O-methyl-sn-glycero-3-phosphocholine (ET-18-OCH3) in PBS was included in the assay as a reference.
Briefly, each sample was serially diluted with PBS, and 0.5 ml of each dilute suspension of 1-O-DPPC liposomes were mixed with 0.5 ml washed human red blood cells (RBC) [4% in PBS (v/v)]. For controls, 0.5 ml of the red blood cell suspension was mixed with either 0.5 ml buffer solution (negative hemolysis control) or 0.5 ml water (positive hemolysis control). Samples and standard were placed in a 37° C. incubator and agitated for 20 hours. Tubes were centrifuged at low speed (2000×G) for 10 minutes to form RBCs pellets. 200 μl of the supernatant was quantified by absorbance at 550 nm using a Perkin-Elmer 320 scanning spectrophotometer. […]

[2] = molecular target: T1, Snake venom PLA2 (Agkistrodon piscivorus piscivorus) (Agkistrodon piscivorus piscivorus, UniProt P51972); assay: Model system: PLA2-controlled calcein release across D-O-SPC target membrane with DPPC carrier liposomes; type: biochemical
T1 construct: Purified snake venom PLA2 (Agkistrodon piscivorus piscivorus) was a generous gift from dr; R. L. Biltonen; tissue gift from dr; host or cells: snake venom of Agkistrodon piscivorus piscivorus
T1 sequence (P51972 1-123): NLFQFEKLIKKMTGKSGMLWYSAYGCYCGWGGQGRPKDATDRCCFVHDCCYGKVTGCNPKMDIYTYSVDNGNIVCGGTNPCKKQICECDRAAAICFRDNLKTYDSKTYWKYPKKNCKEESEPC
Experimental: The temperature is 37° C. […] The percentage of calcein released is determined as % Release=100 (IF(t)−IB)/(IT−IB), where IF(t) is the measured fluorescence at time t after addition of the enzyme, IB is the background fluorescence, and IT is the total fluorescence measured after addition of Triton X-100 which leads to complete release of calcein by breaking up the target liposomes. […] The concentration of the target and carrier liposomes are 25 μM, and PLA2 is added in a 25 nM concentration in a HEPES buffer with pH=7.5.
The experimental model system consists of a negatively charged liposome carrier and a model target membrane. The carrier is a 100 nm unilamellar liposome made of dipalmitoyl phosphatidylcholine lipids (DPPC) with a small amount (2.5 mol %) of negatively charged lipid of the type dipaimitoyl phosphatidylethanolamine (DPPE)-PEG2000. The target membrane is another liposome made of 1,2-O-dioctadecyl-sn-glycero-phosphatidylcholine (D-O-SPC) which is a phospholipid where the acyl linkages of the stearoyl chains are ether bonds. In contrast to DPPC, D-O-SPC is inert towards PLA2-catalysed hydrolysis thereby mimicking the stability of an intact target cell membrane toward degradation by its own enzymes. […] The permeation of calcein across the D-O-SPC target membrane is subsequently monitored by the increase in fluorescence. […]

[3] = Calcein release across target membrane on adding lyso-phospholipid and fatty acid in the absence of PLA2; conditions: 25 μM target membranes, pH=7.5, 39° C.
Experimental: FIG. 13. […] The concentration of the target membranes is 25 μM in a HEPES buffer with pH=7.5 at a temperature of 39° C.
The experimental model system consists of a negatively charged liposome carrier and a model target membrane. The carrier is a 100 nm unilamellar liposome made of dipalmitoyl phosphatidylcholine lipids (DPPC) with a small amount (2.5 mol %) of negatively charged lipid of the type dipaimitoyl phosphatidylethanolamine (DPPE)-PEG2000. The target membrane is another liposome made of 1,2-O-dioctadecyl-sn-glycero-phosphatidylcholine (D-O-SPC) which is a phospholipid where the acyl linkages of the stearoyl chains are ether bonds. In contrast to DPPC, D-O-SPC is inert towards PLA2-catalysed hydrolysis thereby mimicking the stability of an intact target cell membrane toward degradation by its own enzymes. This experimental assay, which permits simultaneous as well as separate investigation of the effect of destabilisers at the carrier liposomes and the effect of enhancers at the target membrane, involves entrapment of a water-soluble fluorescent calcein model drug in a self-quenching concentration, in the interior of the non-hydrolysable target liposome, rather than in the carrier liposome. […] The permeation of calcein across the D-O-SPC target membrane is subsequently monitored by the increase in fluorescence. […]

[4] = molecular target: T2, phospholipase A2 (A. piscivorus piscivorus) (Agkistrodon piscivorus piscivorus, UniProt P51972)
T2 sequence (P51972 1-123): T1 sequence (P51972 1-123)
Experimental: HPLC chromatograms illustrating the effect of phospholipase A2 hydrolysis of micelles composed DSPE-PEG750 (0.150 mM). The chromatograms show the amount of stearic acid generated before (solid line) phospholipase A2 (A. piscivorus piscivorus) was added to the micelle suspension and the amount (dashed line) of DSPE-PEG750 after the lag-burst. The dotted line show pure stearic acid (0.4 mM). The percentage hydrolysis was calculated on basis of the integrated area of the stearic acid standard (115850 units) and the integrated area of the sample (45630 units).
The hydrolysis of micelles composed DSPE-PEG750 was followed by analysis of the amount of stearic acid generated. The catalytic reaction was initiated by adding 8.9 μL of a 42 μM PLA2 (150 nM) stock solution to 2.5 ml a thermostated lipid suspension of DSPE-PEG750 (0.150 mM) equilibrated at 45° C. for 600 seconds prior to addition of PLA2. The characteristic burst behavior of PLA2 towards the micelles is signaled by a sudden increase in the intrinsic fluorescence from PLA2 at 340 nm after excitation at 285 nm followed by a concomitant decrease in the 90° light scattering from the lipid suspension (Hønger et al., Biochemistry 35, 9003–9006). Samples for HPLC analysis of the amount of stearic acid generated were taken before adding PLA2 and 100 sec after the observed lag-time.

Molecule: CCCCCCCCCCCCCCCCCCOC[C@H](COP(=O)([O-])OCC[N+](C)(C)C)OC [ET-18-OCH3]
- hemolysis (in words) [1]: significant degree of hemolysis

Molecule: CC(C)CCC[C@@H](C)[C@H]1CC[C@H]2[C@@H]3CC=C4C[C@@H](O)CC[C@]4(C)[C@H]3CC[C@]12C [cholesterol]
- effect on extracellular PLA2 activity (in words) ([2]; ≈3 mol % incorporated into liposomes): activates
- effect on extracellular PLA2 activity (in words) ([2]; ≈20 mol % incorporated into liposomes, data not shown): deactivated

Molecule: CCCCCCCCCCCCCCCC(=O)O [fatty acid, palmitic acid]
- rate of calcein release across target membrane (in words) [3]: increased rate of calcein release

Molecule: di-octadecanoyl-sn-glycero-3-phosphoethanolamine-N-[methoxy(polyethylene glycol)-750 [DSPE-PEG750]
- percent hydrolysis of DSPE-PEG750 ([4]; 0.150 mM DSPE-PEG750, 150 nM PLA2, 45° C.): 100%
- lag time ([4]; 45° C., 150 nM PLA2): 10 s
